Values quoted from earlier work, collected in patent US20260373193A1, “CARCINOGENESIS REDUCTION WITH PENTAAZA MACROCYLIC RING COMPLEX” (GALERA LABS, LLC, priority 2023, published 2026).

Legend:
[1] = tested on: collagen-induced arthritis; details: rat collagen-induced arthritis; cited from earlier work
radiation damage = details: adult mice; cited from earlier work
established tumors = details: cited from earlier work
colon of rats = details: experimental colitis; cited from earlier work
[2] = tested on: acute and sub-chronic radiation damage; platinum therapy kidney damage; details: mucositis, pulmonary pneumonitis and fibrosis, liver damage; cited from earlier work
inflammation = details: rat; cited from earlier work
[3] = tested on: radiation-induced oral mucositis; details: hamster; cited from earlier work

| SMILES | joint disease [1] | radiation damage, lethal total body irradiation (radiation damage) | efficacy of radiation and other therapies (established tumors) | injury to the colon (colon of rats) | overt acute and sub-chronic radiation damage; platinum therapy kidney damage [2] | inflammation (inflammation) | radiation-induced oral mucositis [3] |
| --- | --- | --- | --- | --- | --- | --- | --- |
| [Cl-].[Cl-].[Mn+2].c1cc2nc(c1)CN[C@@H]1CCCC[C@H]1NCCN[C@@H]1CCCC[C@H]1NC2 [GC4403] | prevent joint disease | attenuate the radiation damage | enhance the efficacy of radiation and other therapies | very significantly reduce the injury to the colon of rats | reduce overt acute and sub-chronic radiation damage | inhibit inflammation | attenuate the radiation damage |
| CCC(=O)[O-].CCC(=O)[O-].[Mn+2].c1cc2nc(c1)CN[C@H]1CCCC[C@@H]1NCCN[C@H]1CCCC[C@@H]1NC2 [GC4711] |  |  | enhance the efficacy of radiation and other therapies |  | reduce overt acute and sub-chronic radiation damage |  |  |
